Here are results for 15 molecules from patent US20230257372A1 (CHONG KUN DANG PHARMACEUTICAL CORP., priority 2020, published 2023).

Read-outs that look alike come from different tables or passages of the source.

One assay concerns the target T1, human recombinant HDAC1 (Homo sapiens, UniProt Q13547).
T1 construct: purchased Enzo Life Science, Inc. BML-SE456
Put plainly: HDAC1 enzyme activity inhibition (HDAC Fluorimetric Drug Discovery Kit). To be noted: read-out: HDAC1. Type of assay: biochemical. A digest of the protocol:
(§1)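 Compounds in 5-fold dilution series were incubated with […] enzyme and 10 μM substrate at 30° C for 60 minutes. Fluor de Lys Developer II was then added for 30 minutes to stop the reaction and develop the fluorescent signal.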

Assay [1] relates to hippocampal neurons from a Sprague-Dawley (SD) rat fetus. Put plainly: Effect of HDAC6-specific inhibitor on axonal transport of mitochondria in amyloid-beta treated neurons. The format is cell-based. To be noted: transport velocity of mitochondria in neuronal axon after normalization; vehicle = 100%, amyloid beta treatment group = 0%; compound treatment for three hours. A digest of the protocol: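 Rat E17-18 hippocampal neurons exposed to amyloid-beta fragments […]; after 24 h (day 8 in vitro) compound added for 3 h, mitochondria stained with MitoTracker Red CMXRos. Confocal imaging every 1 s for 1 min gave per-mitochondrion velocity, normalized vehicle = 100%, amyloid-beta = 0%.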

The target of another assay is T2, human recombinant HDAC6 (Homo sapiens, UniProt Q9UBN7).
T2 construct: purchased Calbiochem Inc. 382180
T2 sequence (Q9UBN7 1-1215): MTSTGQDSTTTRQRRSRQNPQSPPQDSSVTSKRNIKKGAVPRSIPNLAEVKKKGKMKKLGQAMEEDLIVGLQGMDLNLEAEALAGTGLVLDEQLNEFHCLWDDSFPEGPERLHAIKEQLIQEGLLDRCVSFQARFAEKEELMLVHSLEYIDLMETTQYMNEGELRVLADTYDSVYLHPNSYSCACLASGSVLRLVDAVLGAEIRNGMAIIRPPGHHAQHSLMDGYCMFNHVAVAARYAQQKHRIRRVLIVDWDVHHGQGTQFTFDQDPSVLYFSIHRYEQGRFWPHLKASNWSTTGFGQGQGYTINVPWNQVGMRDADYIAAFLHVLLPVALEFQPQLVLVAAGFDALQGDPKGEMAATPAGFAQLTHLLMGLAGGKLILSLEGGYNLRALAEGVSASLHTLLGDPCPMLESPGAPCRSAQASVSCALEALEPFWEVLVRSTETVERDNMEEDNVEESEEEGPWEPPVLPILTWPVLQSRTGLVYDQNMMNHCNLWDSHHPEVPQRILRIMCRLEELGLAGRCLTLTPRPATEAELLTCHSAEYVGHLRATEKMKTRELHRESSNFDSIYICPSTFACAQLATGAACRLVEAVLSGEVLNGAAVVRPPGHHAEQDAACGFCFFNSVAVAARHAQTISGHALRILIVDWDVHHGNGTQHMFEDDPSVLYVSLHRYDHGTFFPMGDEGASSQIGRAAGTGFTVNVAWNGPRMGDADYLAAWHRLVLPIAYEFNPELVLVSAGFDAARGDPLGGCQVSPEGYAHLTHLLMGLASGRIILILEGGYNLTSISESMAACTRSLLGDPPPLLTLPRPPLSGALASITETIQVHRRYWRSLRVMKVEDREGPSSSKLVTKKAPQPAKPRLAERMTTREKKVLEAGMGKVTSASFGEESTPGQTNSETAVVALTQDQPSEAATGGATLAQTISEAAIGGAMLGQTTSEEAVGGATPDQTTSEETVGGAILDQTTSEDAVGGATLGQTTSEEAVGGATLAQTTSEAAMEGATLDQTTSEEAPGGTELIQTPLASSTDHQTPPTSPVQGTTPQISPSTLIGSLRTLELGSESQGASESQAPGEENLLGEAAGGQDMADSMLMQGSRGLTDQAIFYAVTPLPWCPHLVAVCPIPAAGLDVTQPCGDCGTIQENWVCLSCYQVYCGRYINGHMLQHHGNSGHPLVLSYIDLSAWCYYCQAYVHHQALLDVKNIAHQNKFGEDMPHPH
In words: HDAC6 enzyme activity inhibition (HDAC Fluorimetric Drug Discovery Kit). Type of assay: biochemical. The gist of the method: as §1

[2] abbreviates: human recombinant HDAC1, IC50 calculated with GraphPad Prism.
[3] abbreviates: human recombinant HDAC6, IC50 calculated with GraphPad Prism.
Setting [4] is: human recombinant HDAC1, Fluor de Lys substrate, 30° C. 60 minutes.
The mark [5] stands for this setting: human recombinant HDAC6, same protocol as HDAC1.

T1 sequence (Q13547 whole entry): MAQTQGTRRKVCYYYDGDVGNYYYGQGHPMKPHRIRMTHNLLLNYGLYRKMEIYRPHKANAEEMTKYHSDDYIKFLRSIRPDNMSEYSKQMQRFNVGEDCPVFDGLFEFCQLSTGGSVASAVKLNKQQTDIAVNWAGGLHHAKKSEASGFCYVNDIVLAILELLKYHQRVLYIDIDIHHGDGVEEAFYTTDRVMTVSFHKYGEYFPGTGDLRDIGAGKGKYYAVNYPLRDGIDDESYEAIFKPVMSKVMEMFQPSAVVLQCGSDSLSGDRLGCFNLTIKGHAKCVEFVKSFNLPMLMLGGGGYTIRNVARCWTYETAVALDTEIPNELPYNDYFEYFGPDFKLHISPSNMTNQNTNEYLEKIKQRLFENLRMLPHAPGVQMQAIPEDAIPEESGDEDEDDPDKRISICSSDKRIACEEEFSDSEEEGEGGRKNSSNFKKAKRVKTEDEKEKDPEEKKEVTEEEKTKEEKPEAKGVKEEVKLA

In the case of `Fc1cc(-c2nnc(C(F)F)o2)ccc1Cn1cc(-c2cccc(N3CCN(C4COC4)CC3)c2)nn1` [Compound 4375, 2-(difluoromethyl)-5-(3-fluoro-4-((4-(3-(4-(oxetan-3-yl)piperazin-1-yl)phenyl)-1H-1,2,3-triazol-1-yl)methyl)phenyl)-1,3,4-oxadiazole], the IC50 on human recombinant HDAC1 (setting [2]) is more than 50000 nM; at human recombinant HDAC6 (setting [3]), 35 nM. Moreover, the “Velocity distribution (%)” value in assay [1] is recorded as “* (*, 0%˜50%)”. Besides, the “HDAC6 selectivity (fold)” value on human recombinant HDAC6 (HDAC1 IC50 / HDAC6 IC50) is 1428 fold.
With `CN1CCC(Nc2cccc(-c3cn(Cc4ccc(-c5nnc(C(F)F)o5)cc4F)nn3)c2F)CC1` [Compound 4431, N-(3-(1-(4-(5-(difluoromethyl)-1,3,4-oxadiazol-2-yl)-2-fluorobenzyl)-1H-1,2,3-triazol-4-yl)-2-fluorophenyl)-1-methylpiperidin-4-amine], the IC50 is more than 50000 nM at human recombinant HDAC1 (setting [2]) and 19 nM at human recombinant HDAC6 (setting [3]). Besides, the “Velocity distribution (%)” value in assay [1] was “*** (***, >100%)”. Besides, the “HDAC6 selectivity (fold)” value at human recombinant HDAC6 (HDAC1 IC50 / HDAC6 IC50) came out at 2631 fold.
As for `CC(C)N1CCC(Nc2cccc(-c3cn(Cc4ccc(-c5nnc(C(F)F)o5)cc4F)nn3)c2F)CC1` [Compound 4432, N-(3-(1-(4-(5-(difluoromethyl)-1,3,4-oxadiazol-2-yl)-2-fluorobenzyl)-1H-1,2,3-triazol-4-yl)-2-fluorophenyl)-1-isopropylpiperidin-4-amine], the IC50 at human recombinant HDAC1 (setting [2]) was more than 50000 nM; on human recombinant HDAC6 (setting [3]) it was 20.6 nM. Besides, in assay [1], the “Velocity distribution (%)” value was “*** (***, >100%)”. Further, the “HDAC6 selectivity (fold)” value at human recombinant HDAC6 (HDAC1 IC50 / HDAC6 IC50) is reported as 2427 fold.
Turning to `Fc1cc(-c2nnc(C(F)F)o2)ccc1Cn1cc(-c2cn3ccccc3n2)nn1` [Compound 17201, 2-(difluoromethyl)-5-(3-fluoro-4-((4-(imidazo[1,2-a]pyridin-2-yl)-1H-1,2,3-triazol-1-yl)methyl)phenyl)-1,3,4-oxadiazole], the IC50 was more than 50000 nM at human recombinant HDAC1 (setting [4]) and 78.2 nM on human recombinant HDAC6 (setting [5]). The “Velocity distribution (%)” value in assay [1] is listed as “* (*, 0%˜50%)”. Also, the “HDAC6 selectivity (fold)” value at human recombinant HDAC6 (HDAC6 over HDAC1) was determined as 639 fold.
As to `CC(C)N1CCN(c2cccc(-c3cn(Cc4ccc(-c5nnc(C(F)F)o5)cc4F)nn3)n2)CC1` [Compound 17363, 2-(difluoromethyl)-5-(3-fluoro-4-((4-(6-(4-isopropylpiperazin-1-yl)pyridin-2-yl)-1H-1,2,3-triazol-1-yl)methyl)phenyl)-1,3,4-oxadiazole], the values for the IC50 at human recombinant HDAC1 (setting [4]) and at human recombinant HDAC6 (setting [5]) were more than 50000 nM and 22.6 nM, respectively. Also, the “Velocity distribution (%)” value in assay [1] was “** (**, 50%˜100%)”. Further, on human recombinant HDAC6 (HDAC6 over HDAC1), the “HDAC6 selectivity (fold)” value was found to be 2212 fold.
Consider `Fc1cc(-c2nnc(C(F)F)o2)ccc1Cn1cc(-c2ccc(CN3CCC3)cn2)nn1` [Compound 17532, 2-(4-((4-(5-(azetidin-1-yl-methyl)pyridin-2-yl)-1H-1,2,3-triazol-1-yl)methyl)-3-fluorophenyl)5-(difluoromethyl)-1,3,4-oxadiazole], for which the IC50 at human recombinant HDAC1 (setting [4]) is more than 50000 nM; at human recombinant HDAC6 (setting [5]), 23.8 nM. Also, the “Velocity distribution (%)” value in assay [1] was “*** (***, >100%)”. Moreover, the “HDAC6 selectivity (fold)” value on human recombinant HDAC6 (HDAC6 over HDAC1) worked out at 2100 fold.
On to `Fc1cc(-c2nnc(C(F)F)o2)ccc1Cn1cc(-c2ccc(CN3CCCC3)cn2)nn1` [Compound 17533, 2-(difluoromethyl)-5-(3-fluoro-4-((4-(5-(pyrrolidin-1-ylmethyl)pyridin-2-yl)-1H-1,2,3-triazol-1-yl)methyl)phenyl)-1,3,4-oxadiazole], for which the IC50 at human recombinant HDAC1 (setting [4]) was more than 50000 nM; at human recombinant HDAC6 (setting [5]) it was 22 nM. In assay [1], the “Velocity distribution (%)” value is on record as “* (*, 0%˜50%)”. Also, the “HDAC6 selectivity (fold)” value on human recombinant HDAC6 (HDAC6 over HDAC1) came out at 2272 fold.
For the molecule `CN(C)Cc1ccc(-c2cn(Cc3ccc(-c4nnc(C(F)F)o4)cc3F)nn2)nc1` [Compound 17534, 1-(6-(1-(4-(5-(difluoromethyl)-1,3,4-oxadiazol-2-yl)-2-fluorobenzyl)-1H-1,2,3-triazol-4-yl)pyridin-3-yl)-N,N-dimethylmethanamine], the IC50 is more than 50000 nM on human recombinant HDAC1 (setting [4]) and 37.9 nM at human recombinant HDAC6 (setting [5]). In assay [1], the “Velocity distribution (%)” value is on record as “*** (***, >100%)”. Moreover, on human recombinant HDAC6 (HDAC6 over HDAC1), the “HDAC6 selectivity (fold)” value was 1319 fold.
For the molecule `Fc1cc(-c2nnc(C(F)F)o2)cnc1Cn1cc(-c2ccccn2)nn1` [Compound 17983, 2-(difluoromethyl)-5-(5-fluoro-6-((4-(pyridin-2-yl)-1H-1,2,3-triazol-1-yl)methyl)pyridin-3-yl)-1,3,4-oxadiazole], the IC50 at human recombinant HDAC1 (setting [4]) was more than 50000 nM; at human recombinant HDAC6 (setting [5]) it was 78.9 nM. Moreover, in assay [1], the “Velocity distribution (%)” value is “*** (***, >100%)”. The “HDAC6 selectivity (fold)” value at human recombinant HDAC6 (HDAC6 over HDAC1) turned out to be 633 fold.
Regarding `Fc1cc(-c2nnc(C(F)F)o2)cnc1Cn1cc(-c2ccc(CN3CCCC3)cc2)nn1` [Compound 18058, 2-(difluoromethyl)-5-(5-fluoro-6-((4-(4-(pyrrolidin-1-ylmethyl)phenyl)-1H-1,2,3-triazol-1-yl)methyl)pyridin-3-yl)-1,3,4-oxadiazole], the IC50 was more than 50000 nM at human recombinant HDAC1 (setting [4]) and 22 nM on human recombinant HDAC6 (setting [5]). Further, the “Velocity distribution (%)” value in assay [1] is listed as “*** (***, >100%)”. Also, at human recombinant HDAC6 (HDAC6 over HDAC1), the “HDAC6 selectivity (fold)” value was determined as 2272 fold.
Turning to `CN(C)Cc1ccc(-c2cn(Cc3ccc(-c4nnc(C(F)F)o4)cc3F)nn2)cn1` [Compound 18176, 1-(5-(1-(4-(5-(difluoromethyl)-1,3,4-oxadiazol-2-yl)-2-fluorobenzyl)-1H-1,2,3-triazol-4-yl)pyridin-2-yl)-N,N-dimethylmethanamine], the figures for the IC50 at human recombinant HDAC1 (setting [4]) and on human recombinant HDAC6 (setting [5]) were more than 50000 nM and 70.9 nM, respectively. For the same molecule, the “Velocity distribution (%)” value in assay [1] was “** (**, 50%˜100%)”. Besides, on human recombinant HDAC6 (HDAC6 over HDAC1), the “HDAC6 selectivity (fold)” value was 705 fold.
Take `Fc1cc(-c2nnc(C(F)F)o2)ccc1Cn1cc(-c2ccc(CN3CC[C@H](F)C3)cn2)nn1` [Compound 18185, (S)-2-(difluoromethyl)-5-(3-fluoro-4-((4-(5-((3-fluoropyrrolidin-1-yl)methyl)pyridin-2-yl)-1H-1,2,3-triazol-1-yl)methyl)phenyl)-1,3,4-oxadiazole]: the IC50 is more than 50000 nM on human recombinant HDAC1 (setting [4]) and 62 nM at human recombinant HDAC6 (setting [5]). Besides, the “Velocity distribution (%)” value in assay [1] is given as “*** (***, >100%)”. Besides, the “HDAC6 selectivity (fold)” value at human recombinant HDAC6 (HDAC6 over HDAC1) came to 806 fold.
As to `Fc1cc(-c2nnc(C(F)F)o2)cnc1Cn1cc(-c2ccc(CN3CCC3)cc2)nn1` [Compound 18306, 2-(6-((4-(4-(azetidin-1l-ylmethyl)phenyl)-1H-1,2,3-triazol-1-yl)methyl)-5-fluoropyridin-3-yl)-5-(difluoromethyl)-1,3,4-oxadiazole], the IC50 at human recombinant HDAC1 (setting [4]) is more than 50000 nM; at human recombinant HDAC6 (setting [5]), 42.2 nM. Moreover, the “Velocity distribution (%)” value in assay [1] is given as “*** (***, >100%)”. Besides, the “HDAC6 selectivity (fold)” value at human recombinant HDAC6 (HDAC6 over HDAC1) worked out at 1184 fold.
On to `CC1CCN(Cc2ccc(-c3cn(Cc4ncc(-c5nnc(C(F)F)o5)cc4F)nn3)cc2)CC1` [Compound 18307, 2-(difluoromethyl)-5-(5-fluoro-6-((4-(4-((4-methylpiperidin-1-yl)methyl)phenyl)-1H-1,2,3-triazol-1-yl)methyl)pyridin-3-yl)-1,3,4-oxadiazole], for which the values for the IC50 at human recombinant HDAC1 (setting [4]) and at human recombinant HDAC6 (setting [5]) were more than 50000 nM and 48.6 nM, respectively. Further, the “Velocity distribution (%)” value in assay [1] was “*** (***, >100%)”. Besides, at human recombinant HDAC6 (HDAC6 over HDAC1), the “HDAC6 selectivity (fold)” value was found to be 1028 fold.
For the molecule `CN(C)Cc1ccc(-c2cn(Cc3ncc(-c4nnc(C(F)F)o4)cc3F)nn2)cc1` [Compound 18308, 1-(4-(1-((5-(5-(difluoromethyl)-1,3,4-oxadiazol-2-yl)-3-fluoropyridin-2-yl)methyl)-1H-1,2,3-triazol-4-yl)phenyl)-N,N-dimethylmethanamine], the IC50 on human recombinant HDAC1 (setting [4]) is more than 50000 nM; at human recombinant HDAC6 (setting [5]), 64.9 nM. The “Velocity distribution (%)” value in assay [1] was “*** (***, >100%)”. Also, the “HDAC6 selectivity (fold)” value at human recombinant HDAC6 (HDAC6 over HDAC1) was determined as 770 fold.
